In ChEMBL document CHEMBL3734730, “Discovery of novel 2-benzylisoquinolin-1(2H)-ones as potent vasodilative agents” (Bioorg Med Chem Lett, 2015):
Active and inactive are the calls of the source. The calls are words filed in the database; no cut-off is given here.

How the values were obtained:
[1] = Vasodilative activity in isolated Sprague-Dawley rat Superior mesenteric arterial ring assessed as reduction in KCl-induced contraction at 10^-5 by wire myograph method; type: functional; set-up: scale not given: the % may be the effect or the level left
[2] = Vasodilative activity in isolated Sprague-Dawley rat Superior mesenteric arterial ring assessed as reduction in KCl-induced contraction by wire myograph method relative to control; type: functional
[3] = test system: Rattus norvegicus; assay: Antihypertensive activity in SHR rat assessed as reduced systolic pressure at 2 mg/kg, po after 2 hrs by tail-cuff plethysmography (reference value: 2 mmHg); type: functional, Blood
[4] = test system: Rattus norvegicus; assay: Antihypertensive activity in SHR rat assessed as reduced diastolic pressure at 2 mg/kg, po after 2 hrs by tail-cuff plethysmography (reference value: 2 mmHg); type: functional, Blood
[5] = test system: Rattus norvegicus; assay: Antihypertensive activity in SHR rat assessed as reduced diastolic pressure at 4 mg/kg, po after 2 hrs by tail-cuff plethysmography (reference value: 2 mmHg); type: functional, Blood
[6] = test system: Rattus norvegicus; assay: Antihypertensive activity in SHR rat assessed as reduced diastolic pressure at 4 mg/kg, po after 4 hrs by tail-cuff plethysmography; type: functional
[7] = Vasodilative activity in isolated Sprague-Dawley rat second-order mesenteric arterial ring assessed as reduction in KCl-induced contraction by wire myograph method relative to control; type: functional; settings: Mesenteric artery
[8] = test system: Rattus norvegicus; assay: Antihypertensive activity in SHR rat assessed as reduced systolic pressure at 4 mg/kg, po after 0.5 hrs by tail-cuff plethysmography; type: functional
[9] = Vasodilative activity in isolated Sprague-Dawley rat cerebral basilar arterial ring assessed as reduction in KCl-induced contraction by wire myograph method relative to control; type: functional; settings: Basilar artery
[10] = test system: Rattus norvegicus; assay: Antihypertensive activity in SHR rat assessed as reduced systolic pressure at 4 mg/kg, po after 1 hr by tail-cuff plethysmography; type: functional, Blood
[11] = test system: Rattus norvegicus; assay: Antihypertensive activity in SHR rat assessed as reduced diastolic pressure at 8 mg/kg, po after 2 hrs by tail-cuff plethysmography (reference value: 2 mmHg); type: functional, Blood
[12] = test system: Rattus norvegicus; assay: Antihypertensive activity in po-dosed SHR rat assessed as reduced diastolic pressure after 2 hrs by tail-cuff plethysmography; type: functional, organism-based; settings: Blood
[13] = test system: Rattus norvegicus; assay: Antihypertensive activity in SHR rat assessed as reduced systolic pressure at 1 mg/kg, po after 2 hrs by tail-cuff plethysmography (reference value: 2 mmHg); type: functional, Blood
[14] = test system: Rattus norvegicus; assay: Antihypertensive activity in SHR rat assessed as reduced diastolic pressure at 1 mg/kg, po after 2 hrs by tail-cuff plethysmography (reference value: 2 mmHg); type: functional, Blood
[15] = test system: Rattus norvegicus; assay: Antihypertensive activity in SHR rat assessed as reduced diastolic pressure at 4 mg/kg, po after 0.5 hrs by tail-cuff plethysmography; type: functional, Blood
[16] = test system: Rattus norvegicus; assay: Antihypertensive activity in SHR rat assessed as reduced systolic pressure at 4 mg/kg, po after 5 hrs by tail-cuff plethysmography; type: functional, Blood
[17] = Vasodilative activity in isolated Sprague-Dawley rat third-order mesenteric arterial ring assessed as reduction in KCl-induced contraction by wire myograph method relative to control; type: functional; settings: Mesenteric artery
[18] = Vasodilative activity in isolated Sprague-Dawley rat mesenteric arterial ring assessed as reduction in phenylephrine-induced contraction at 10 uM pretreated for 30 mins followed by addition of 10^-8 to 10^-4 M phenylephrine by wire myograph method relative to control; type: functional; settings: Mesenteric artery
[19] = Vasodilative activity in isolated Sprague-Dawley rat renal arterial ring assessed as reduction in KCl-induced contraction by wire myograph method relative to control; type: functional; settings: Renal artery
[20] = test system: Rattus norvegicus; assay: Antihypertensive activity in po-dosed SHR rat assessed as reduced systolic pressure after 2 hrs by tail-cuff plethysmography; type: functional, organism-based; settings: Blood
[21] = test system: Rattus norvegicus; assay: Antihypertensive activity in SHR rat assessed as reduced systolic pressure at 8 mg/kg, po after 2 hrs by tail-cuff plethysmography (reference value: 2 mmHg); type: functional, Blood
[22] = Vasodilative activity in isolated Sprague-Dawley rat coronary artery assessed as reduction in KCl-induced contraction by wire myograph method relative to control; type: functional, tissue-based
[23] = test system: Rattus norvegicus; assay: Antihypertensive activity in SHR rat assessed as reduced diastolic pressure at 4 mg/kg, po after 1 hr by tail-cuff plethysmography; type: functional
[24] = test system: Rattus norvegicus; assay: Antihypertensive activity in SHR rat assessed as reduced systolic pressure at 4 mg/kg, po after 2 hrs by tail-cuff plethysmography (reference value: 2 mmHg); type: functional, Blood

COc1ccc2c(=O)n(Cc3ccc(OC)c(OC)c3)ccc2c1
Activity [1]: 59% | EC50 [2]: 3.16 µM | Rmax [2]: 84.7%

CCOC(=O)C1=C(C)NC(C)=C(C(=O)OC)C1c1cccc([N+](=O)[O-])c1 (centres undefined) [NITRENDIPINE]
Activity [3]: 9 mmHg | Activity [1]: 99.9% | EC50 [2]: 0.000316 µM | Rmax [2]: 99.8% | Activity [4]: 5 mmHg

O=C(O)c1cccc(Cn2ccc3cc4c(cc3c2=O)OCO4)c1
Activity [1]: 34.2%

COC(=O)c1cccc(Cn2ccc3cc4c(cc3c2=O)OCO4)c1
Activity [1]: 50.6% | EC50 [2]: 3.98 µM | Rmax [2]: 51.4%

COc1ccc(Cn2ccc3cccc(OC)c3c2=O)cc1
Activity [5]: 44 mmHg | Activity [6]: 10 mmHg | EC50 [7]: 20 nM | Emax [7]: 95.4% | Activity [8]: 4 mmHg | EC50 [9]: 398 nM | Emax [9]: 103% | Activity [10]: 7 mmHg | Activity [3]: 14 mmHg | Activity [11]: 53 mmHg | inhibition [12]: Dose-dependent effect | Activity [1]: 96.3% | Activity [13]: 6 mmHg | Activity [14]: 10 mmHg | EC50 [2]: 0.2 µM | Rmax [2]: 106% | Activity [15]: 0 mmHg | Activity [16]: 6 mmHg | EC50 [17]: 126 nM | Emax [17]: 99.9% | inhibition [18]: Active | EC50 [19]: 631 nM | Emax [19]: 122% | inhibition [20]: Dose-dependent effect | Activity [21]: 46 mmHg | EC50 [22]: 2000 nM | Emax [22]: 107% | Activity [23]: 8 mmHg | Activity [24]: 38 mmHg | Activity [4]: 16 mmHg

COc1ccc2c(=O)n(Cc3ccccc3)ccc2c1
Activity [1]: 60.1% | EC50 [2]: 2 µM | Rmax [2]: 61.8%

COc1cc(OC)c2c(=O)n(Cc3cc(OC)c(OC)c(OC)c3)ccc2c1
Activity [1]: 53.1% | EC50 [2]: 6.31 µM | Rmax [2]: 89.5%

COC(=O)c1cccc(Cn2ccc3cc(OC)c(OC)cc3c2=O)c1
Activity [1]: 37.6%

COc1cc2ccn(Cc3ccc(F)cc3)c(=O)c2cc1OC
Activity [1]: 35.2%

COc1cc(O)c2c(=O)n(Cc3ccc(OC)c(OC)c3)ccc2c1
Activity [1]: 81.3% | EC50 [2]: 0.501 µM | Rmax [2]: 91.6%

COc1cc2ccn(Cc3cc(OC)c(OC)c(OC)c3)c(=O)c2cc1OC
Activity [1]: 48.4% | EC50 [2]: 15.8 µM | Rmax [2]: 73.1%

COc1cc2ccn(Cc3cccc(F)c3)c(=O)c2cc1OC
Activity [1]: 54% | EC50 [2]: 3.98 µM | Rmax [2]: 54.2%
